# Reference: PMC10796410 (Cancer Chemotherapy and Pharmacology, 2023)
# Values joined by “and” are separate entries in the source; they are usually repeats but may differ in a detail not shown here. Equal entries are not always repeated. Where two headings read alike, the source gives them in different places.
# What was measured:
# [1] = Plasma pharmacokinetics of metformin in rats after a single oral dose, alone or with olaparib (HPLC-UV, non-compartmental); type: in vivo, Wistar rats; conditions: for Cmax / k el: po; for Cmax / k el / Cl/F / ka / t0.5: rat plasma, n = 8, mean ± SD
# Method: Adult male Wistar rats (weight 380–530 g) were used in the study. The animals were maintained under standard breeding conditions with a 12/12 h light–dark cycle (lights on at 06.00, lights off at 18.00) at constant room temperature (23 ± 2 °C), relative humidity of 55 ± 10% and given ad libitum access to food and water. The animals were allowed to acclimatize for a week before the beginning of the experiments. The rats were divided into three groups. […] The solution for oral metformin administration was prepared in saline at a single dose of 100 mg/kg [15]. Drugs were orally administered to rats by gavage between 7:00 a.m. and 8:00 a.m. Before administration (0 h) and at different time intervals after the administration, i.e., 0.085, 0.5, 1, 2, 4, 6, 8, 10, and 24 h [16], blood was collected from the tail vein of each rat into 1.5-ml heparinized Eppendorf (EP) tubes. The blood samples were centrifuged at 5000 rpm for 10 min, and the plasma was transferred to new centrifuge tubes and then stored at – 80 °C.
# High-performance liquid chromatography (HPLC) with ultraviolet (UV) detection (HPLC Waters 2695 Separations Module with autosampler, Waters 2487 Dual Absorbance Detector) [17] after a liquid–liquid extraction with a mixture of 1-butanol:n-heptane (50:50, v/v) was applied to measure the concentrations of metformin in the rats’ plasma. An analytical Symmetry® C8 column (250 × 4.6 mm, 5.0 μm; Waters Corporation, Milford, MA, USA) and a mobile phase consisting of 0.1 M ammonium formate solution, pH 6.3 with an isocratic flow rate of 1.0 ml/min were used. The volume of each injection was 20 µl, and the retention times for metformin and internal standard (acetaminophen) were 3.5 and 11.2 min, respectively.
# The maximum plasma concentration (Cmax) and the time to reach the Cmax (tmax) were obtained directly from the measured values. All of the above-mentioned parameters underwent statistical analysis.
# [2] = system: epithelial ovarian cancer cell lines; conditions: drugs given separately or co-administered; cited from earlier work
# [3] = male, Wistar, rat, plasma, 100 mg/kg, IIMET: metformin 100 mg/kg b.w. oral single dose alone
# [4] = male, Wistar, rat, plasma, 100 mg/kg, IMET+OLA: metformin 100 mg/kg b.w. + olaparib 100 mg/kg b.w. oral single dose
# [5] = metformin, rats, with olaparib / alone
# [6] = IIMET: metformin 100 mg/kg b.w. oral single dose alone
# [7] = IMET+OLA: metformin 100 mg/kg b.w. + olaparib 100 mg/kg b.w. oral single dose
# [8] = rats, co-administered with olaparib vs. metformin alone
# [9] = rats, concomitant olaparib and metformin
structure (smiles),measurement,setting,value
"CN(C)C(=N)N=C(N)N [metformin, Metformin]",concentration at 0.083 h,"[1]; male, Wistar, rat, plasma, oral, 100 mg/kg, t 0.083 h, IIMET (metformin alone), group mean, read-out: Cmet, S (group mean)",0.146 µg/mL
same,concentration at 1 h,"[1]; male, Wistar, rat, plasma, oral, 100 mg/kg, t 1 h, IIMET (metformin alone), group mean, read-out: Cmet, S (group mean)",0.397 µg/mL
same,concentration at 2 h,"[1]; male, Wistar, rat, plasma, oral, 100 mg/kg, t 2 h, IIMET (metformin alone), group mean, read-out: Cmet, S (group mean)",0.285 µg/mL
same,concentration at 6 h,"[1]; male, Wistar, rat, plasma, oral, 100 mg/kg, t 6 h, IIMET (metformin alone), group mean, read-out: Cmet, S (group mean)",0.156 µg/mL
same,concentration at 8 h,"[1]; male, Wistar, rat, plasma, oral, 100 mg/kg, t 8 h, IIMET (metformin alone), group mean, read-out: Cmet, S (group mean)",0.163 µg/mL
same,concentration at 10 h,"[1]; male, Wistar, rat, plasma, oral, 100 mg/kg, t 10 h, IIMET (metformin alone), group mean, read-out: Cmet, S (group mean)",0.133 µg/mL
same,concentration at 24 h,"[1]; male, Wistar, rat, plasma, oral, 100 mg/kg, t 24 h, IIMET (metformin alone), group mean, read-out: Cmet, S (group mean)",0.112 µg/mL
same,concentration at 0.083 h,"[1]; male, Wistar, rat, plasma, oral, t 0.083 h, IMET+OLA (metformin and olaparib), group mean, read-out: Cmet, S (group mean)",0.14 µg/mL
same,concentration at 0.5 h,"[1]; male, Wistar, rat, plasma, oral, t 0.5 h, IMET+OLA (metformin and olaparib), group mean, read-out: Cmet, S (group mean)",0.59 µg/mL
same,concentration at 1 h,"[1]; male, Wistar, rat, plasma, oral, t 1 h, IMET+OLA (metformin and olaparib), group mean, read-out: Cmet, S (group mean)",0.968 µg/mL
same,concentration at 2 h,"[1]; male, Wistar, rat, plasma, oral, t 2 h, IMET+OLA (metformin and olaparib), group mean, read-out: Cmet, S (group mean)",0.858 µg/mL
same,concentration at 4 h,"[1]; male, Wistar, rat, plasma, oral, t 4 h, IMET+OLA (metformin and olaparib), group mean, read-out: Cmet, S (group mean)",0.734 µg/mL
same,concentration at 6 h,"[1]; male, Wistar, rat, plasma, oral, t 6 h, IMET+OLA (metformin and olaparib), group mean, read-out: Cmet, S (group mean)",0.627 µg/mL
same,concentration at 10 h,"[1]; male, Wistar, rat, plasma, oral, t 10 h, IMET+OLA (metformin and olaparib), group mean, read-out: Cmet, S (group mean)",0.334 µg/mL
same,concentration at 24 h,"[1]; male, Wistar, rat, plasma, oral, t 24 h, IMET+OLA (metformin and olaparib), group mean, read-out: Cmet, S (group mean)",0.182 µg/mL
same,Cmax,[1]; [3],0.45 ± 0.29 µg/mL
same,k el,[1]; [3],8.89e-06 s⁻¹
same,Cmax,[1]; [4],1.25 ± 0.8 µg/mL
same,k el,[1]; [4],1.5e-05 s⁻¹
same,IMET+OLA/IIMET ratio for AUC0-t,[1]; [5],2.59
same,IMET+OLA/IIMET ratio for AUC0→∞,[1]; [5],1.74
same,IMET+OLA/IIMET ratio for Cmax,[1]; [5],2.78
same,Cl/F,[1]; [6],6.31 ± 1.48 l/h and 6.31 ± 1.48 (23.5) l/h
same,ka,[1]; [6],0.41 ± 0.25 (62.4) h^−1
same,t0.5,[1]; [6],26.54 ± 14.52 (54.7) h
same,Cl/F,[1]; [7],3.57 ± 1.26 l/h and 3.57 ± 1.26 (35.34) l/h
same,ka,[1]; [7],0.59 ± 0.17 (29.7) h^−1
same,t0.5,[1]; [7],14.95 ± 6.04 (40.4) h
same,decrease of metformin Cl/F in the presence of olaparib,[1]; [8],43.4%
same,decrease of metformin Vd/F in the presence of olaparib,[1]; [8],65.1%
same,increase of metformin AUC0-t when co-administered with olaparib,[1]; [8],159.8%
same,increase of metformin AUC0-∞ when co-administered with olaparib,[1]; [8],74.1%
same,increase of metformin Cmax in the presence of olaparib,[1]; [8],177.8%
same,increase of metformin AUC on concomitant olaparib,[1]; [9],2.6 times
same,increase of metformin Cmax on concomitant olaparib,[1]; [9],2.8 times
same,Cmet,"[1]; t 0.083 h, IIMET (metformin alone), individual rats 17-24",0.139 µg/mL and 0.07 µg/mL and 0.274 µg/mL and 0.12 µg/mL and 0.149 µg/mL and 0.135 µg/mL and 0.136 µg/mL and 0.145 µg/mL
same,Cmet,"[1]; t 0.5 h, IIMET (metformin alone), individual rats 17-24",0.153 µg/mL and 0.15 µg/mL and 0.313 µg/mL and 0.434 µg/mL and 0.58 µg/mL and 0.179 µg/mL and 0.143 µg/mL and 0.118 µg/mL
same,Cmet,"[1]; t 0.5 h, IMET+OLA (metformin and olaparib), individual rats 9-16",0.305 µg/mL and 0.586 µg/mL and 0.526 µg/mL and 1.222 µg/mL and 0.663 µg/mL and 0.324 µg/mL and 0.506 µg/mL
same,Cmet,"[1]; t 1 h, IIMET (metformin alone), individual rats 17-24",0.174 µg/mL and 0.18 µg/mL and 1.014 µg/mL and 0.544 µg/mL and 0.499 µg/mL and 0.32 µg/mL and 0.159 µg/mL and 0.287 µg/mL
same,Cmet,"[1]; t 1 h, IMET+OLA (metformin and olaparib), individual rats 9-16",0.543 µg/mL and 0.726 µg/mL and 0.856 µg/mL and 1.358 µg/mL and 0.97 µg/mL and 2.359 µg/mL and 0.185 µg/mL and 0.747 µg/mL
same,Cmet,"[1]; t 2 h, IIMET (metformin alone), individual rats 17-24",0.23 µg/mL and 0.17 µg/mL and 0.418 µg/mL and 0.681 µg/mL and 0.209 µg/mL and 0.126 µg/mL and 0.165 µg/mL and 0.28 µg/mL
same,Cmet,"[1]; t 2 h, IMET+OLA (metformin and olaparib), individual rats 9-16",0.528 µg/mL and 0.55 µg/mL and 1.159 µg/mL and 2.443 µg/mL and 1.095 µg/mL and 0.402 µg/mL and 0.242 µg/mL and 0.446 µg/mL
same,Cmet,"[1]; t 4 h, IIMET (metformin alone), individual rats 17-24",0.113 µg/mL and 0.13 µg/mL and 0.27 µg/mL and 0.646 µg/mL and 0.162 µg/mL
same,Cmet,"[1]; t 4 h, IMET+OLA (metformin and olaparib), individual rats 9-16",0.578 µg/mL and 0.585 µg/mL and 1.642 µg/mL and 1.111 µg/mL and 0.694 µg/mL and 0.502 µg/mL and 0.361 µg/mL and 0.396 µg/mL
same,Cmet,"[1]; t 6 h, IMET+OLA (metformin and olaparib), individual rats 9-16",0.469 µg/mL and 0.284 µg/mL and 1.584 µg/mL and 1.082 µg/mL and 0.494 µg/mL and 0.321 µg/mL and 0.41 µg/mL and 0.368 µg/mL
same,Cmet,"[1]; t 8 h, IMET+OLA (metformin and olaparib), individual rats 9-16",0.57 µg/mL and 0.234 µg/mL and 1.165 µg/mL and 0.793 µg/mL and 0.485 µg/mL and 0.275 µg/mL and 0.247 µg/mL and 0.287 µg/mL
same,Cmet,"[1]; t 10 h, IMET+OLA (metformin and olaparib), individual rats 9-16",0.281 ug/ml and 0.155 ug/ml and 0.738 ug/ml and 0.33 ug/ml and 0.444 ug/ml and 0.268 ug/ml (2×) and 0.186 ug/ml
same,Cmet,"[1]; t 24 h, IMET+OLA (metformin and olaparib), individual rats 9-16",0.133 µg/mL and 0.13 µg/mL and 0.334 µg/mL and 0.18 µg/mL and 0.236 µg/mL and 0.141 µg/mL and 0.117 µg/mL and 0.187 µg/mL
same,percentage of late apoptotic cells,[2],8.2%
